For one assay, the target named is ATM (Homo sapiens (Human), UniProt Q13315). Description: ATM in Cell Western Assay (pKAP1 in etoposide-treated MCF-7 cells). Format: cell-based. Put shortly: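 Cells received compounds in a 10-dose, 3-fold series from a 1 μM final top concentration, then 100 μM etoposide, for 1 hr at 37° C. They were then fixed with paraformaldehyde and permeabilized with 0.1% Triton X-100. After immunostaining, plates were scanned on an infrared imager.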

A further assay has as its target DNA-PK (Homo sapiens (Human), UniProt P78527). The assay is described as follows: DNA-PK Enzyme-Linked Immunosorbent Assay (phosphorylation of GST-p53 (1-101) peptide). Format: biochemical. The settings on record: ELISA. Put shortly: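 ELISA with plate-bound GST-p53 (1-101) phosphorylated by DNA-PK (0.1 μg/mL final) with 20 μM ATP for 1 h at 25 °C. Compounds tested over 10 3-fold doses from 100 nM top final. Phospho-p53 Ser15 detected by antibody, HRP and TMB, absorbance at 450 nm.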

Where [1] appears, read: pKAP1 in etoposide-treated MCF-7 cells.
[2] abbreviates: MCF-7 cells, etoposide 100 μM, 1 hr, pKAP1 readout.

Counter-ions that a name gives are not always drawn.

Sequence of ATM (Q13315 whole entry): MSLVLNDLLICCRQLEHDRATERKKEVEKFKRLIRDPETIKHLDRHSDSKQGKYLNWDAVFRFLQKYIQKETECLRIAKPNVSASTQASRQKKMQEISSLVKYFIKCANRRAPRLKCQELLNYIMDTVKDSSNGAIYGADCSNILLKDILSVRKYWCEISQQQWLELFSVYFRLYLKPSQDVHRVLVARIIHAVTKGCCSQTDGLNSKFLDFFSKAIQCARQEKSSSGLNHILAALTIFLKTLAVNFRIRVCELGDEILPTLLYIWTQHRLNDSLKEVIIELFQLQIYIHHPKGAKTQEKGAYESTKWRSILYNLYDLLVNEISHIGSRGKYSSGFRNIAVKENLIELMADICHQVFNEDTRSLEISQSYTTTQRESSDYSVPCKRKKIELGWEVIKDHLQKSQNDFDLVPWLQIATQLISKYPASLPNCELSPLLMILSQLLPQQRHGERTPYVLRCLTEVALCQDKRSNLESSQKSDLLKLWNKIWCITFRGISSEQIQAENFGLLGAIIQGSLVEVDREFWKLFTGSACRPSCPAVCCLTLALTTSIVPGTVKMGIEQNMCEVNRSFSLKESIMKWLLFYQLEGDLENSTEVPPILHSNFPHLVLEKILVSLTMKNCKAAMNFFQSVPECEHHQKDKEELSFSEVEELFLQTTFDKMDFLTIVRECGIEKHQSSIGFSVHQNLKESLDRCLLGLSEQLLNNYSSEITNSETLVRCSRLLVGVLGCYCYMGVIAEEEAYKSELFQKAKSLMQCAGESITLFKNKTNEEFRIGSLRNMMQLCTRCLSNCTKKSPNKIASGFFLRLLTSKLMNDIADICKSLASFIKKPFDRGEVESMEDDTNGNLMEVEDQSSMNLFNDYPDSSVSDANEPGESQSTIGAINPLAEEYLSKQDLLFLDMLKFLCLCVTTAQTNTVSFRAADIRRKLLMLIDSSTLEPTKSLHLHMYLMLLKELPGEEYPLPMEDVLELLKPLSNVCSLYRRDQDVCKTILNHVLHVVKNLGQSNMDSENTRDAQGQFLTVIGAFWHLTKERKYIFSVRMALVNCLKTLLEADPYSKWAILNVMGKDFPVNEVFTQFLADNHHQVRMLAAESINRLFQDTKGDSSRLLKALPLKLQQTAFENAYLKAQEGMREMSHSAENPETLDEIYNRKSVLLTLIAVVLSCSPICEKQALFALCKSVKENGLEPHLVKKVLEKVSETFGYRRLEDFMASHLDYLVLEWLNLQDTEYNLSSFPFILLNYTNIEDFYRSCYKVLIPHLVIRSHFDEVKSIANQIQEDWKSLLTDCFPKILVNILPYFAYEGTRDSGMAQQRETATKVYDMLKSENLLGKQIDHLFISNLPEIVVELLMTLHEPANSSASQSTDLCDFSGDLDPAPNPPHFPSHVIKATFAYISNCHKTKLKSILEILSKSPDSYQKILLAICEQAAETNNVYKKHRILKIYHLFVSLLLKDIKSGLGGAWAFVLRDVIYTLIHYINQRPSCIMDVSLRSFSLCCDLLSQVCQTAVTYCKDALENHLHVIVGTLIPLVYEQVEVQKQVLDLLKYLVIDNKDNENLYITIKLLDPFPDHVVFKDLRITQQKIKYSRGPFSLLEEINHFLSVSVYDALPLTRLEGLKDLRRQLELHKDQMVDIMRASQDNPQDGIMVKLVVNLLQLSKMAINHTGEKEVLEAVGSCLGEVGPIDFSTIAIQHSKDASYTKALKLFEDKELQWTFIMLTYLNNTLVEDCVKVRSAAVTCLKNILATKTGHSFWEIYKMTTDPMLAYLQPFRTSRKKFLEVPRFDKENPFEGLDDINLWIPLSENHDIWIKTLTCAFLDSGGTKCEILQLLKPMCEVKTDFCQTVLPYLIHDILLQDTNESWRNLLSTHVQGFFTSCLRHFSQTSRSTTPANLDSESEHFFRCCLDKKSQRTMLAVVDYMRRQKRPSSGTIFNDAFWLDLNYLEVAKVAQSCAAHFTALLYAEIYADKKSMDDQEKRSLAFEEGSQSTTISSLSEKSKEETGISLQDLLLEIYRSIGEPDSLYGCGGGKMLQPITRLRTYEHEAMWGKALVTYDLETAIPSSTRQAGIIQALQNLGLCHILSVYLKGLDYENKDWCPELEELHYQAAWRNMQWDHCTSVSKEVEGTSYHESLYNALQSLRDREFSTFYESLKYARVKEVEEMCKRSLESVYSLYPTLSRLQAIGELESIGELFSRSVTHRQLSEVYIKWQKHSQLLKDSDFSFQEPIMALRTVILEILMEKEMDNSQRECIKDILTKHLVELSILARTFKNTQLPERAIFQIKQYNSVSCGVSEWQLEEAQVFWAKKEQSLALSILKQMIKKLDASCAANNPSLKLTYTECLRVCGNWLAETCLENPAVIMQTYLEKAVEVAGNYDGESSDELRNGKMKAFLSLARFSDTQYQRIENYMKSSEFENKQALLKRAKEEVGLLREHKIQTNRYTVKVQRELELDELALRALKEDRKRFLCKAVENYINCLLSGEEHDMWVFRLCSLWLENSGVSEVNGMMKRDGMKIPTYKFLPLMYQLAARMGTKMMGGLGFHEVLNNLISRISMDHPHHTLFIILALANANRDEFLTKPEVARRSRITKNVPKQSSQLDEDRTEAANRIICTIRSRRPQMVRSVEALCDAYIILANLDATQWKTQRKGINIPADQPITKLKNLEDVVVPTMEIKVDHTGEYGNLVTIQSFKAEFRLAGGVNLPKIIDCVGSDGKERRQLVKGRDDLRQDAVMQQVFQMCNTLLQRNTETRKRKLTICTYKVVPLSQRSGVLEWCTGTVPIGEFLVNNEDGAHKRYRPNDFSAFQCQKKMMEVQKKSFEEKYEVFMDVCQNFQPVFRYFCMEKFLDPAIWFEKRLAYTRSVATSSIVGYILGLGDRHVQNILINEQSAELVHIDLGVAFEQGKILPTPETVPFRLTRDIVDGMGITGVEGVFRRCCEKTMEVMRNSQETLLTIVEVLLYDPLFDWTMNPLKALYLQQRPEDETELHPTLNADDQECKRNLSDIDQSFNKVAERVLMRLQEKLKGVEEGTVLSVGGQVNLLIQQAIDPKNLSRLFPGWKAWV

By IC50 is commonly meant the concentration needed to halve the response being measured. The low end stands for greater potency in that assay, the high end for weaker potency in that assay. Take `CC(C)NCCOc1ncc(-c2cc3c4c(cnc3cc2F)N(C)C(=O)C42CN(c3ccccc3Cl)C2)cc1NS(C)(=O)=O` [Example 525, N-(5-(1-(2-Chlorophenyl)-7′ fluoro-3′-methyl-2′-oxo-2′,3′-dihydrospiro[azetidine-3,1′-pyrrolo[2,3-c]quinolin]-8′-yl)-2-(2-(isopropylamino)ethoxy)pyridin-3-yl)methanesulfonamide]: the IC50 is 1 to 100 nM against ATM (setting [1]) and 0.5 to 1 nM against DNA-PK (20 μM ATP).

As for `CN(C)CCCOc1ncc(-c2ccc3ncc4c(c3c2)C2(CCC2)C(=O)N4C)cc1NS(=O)(=O)N1CCOCC1` [Example 136, N-(2-(3-(Dimethylamino)propoxy)-5-(3′-methyl-2′-oxo-2′,3′-dihydrospiro [cyclobutane-1,1′-pyrrolo[2,3-c]quinolin]-8′-yl)pyridin-3-yl)morpholine-4-sulfonamide hydrochloride], the IC50 at ATM (setting [2]) and on DNA-PK (ATP 20 μM) was 1 to 100 nM each time.

For the compound `CN(C)CCCOc1ncc(-c2ccc3ncc4c(c3c2F)C2(CCC2)C(=O)N4C)cc1NS(C)(=O)=O` [Example 268, N-(2-(3-(Dimethylamino)propoxy)-5-(9′-fluoro-3′-methyl-2′-oxo-2′,3′-dihydrospiro[cyclobutane-1,1′-pyrrolo[2,3-c]quinolin]-8′-yl)pyridin-3-yl)methanesulfonamide], the IC50 against ATM (setting [2]) and at DNA-PK (ATP 20 μM) was 1 to 100 nM each time.

`CC(C)NCCOc1ncc(-c2cc3c(cc2F)ncc2c3[C@]3(C[C@H](C(C)(C)O)C3)C(=O)N2C)cc1NS(C)(=O)=O` [Example 456, cis-N-(5-(7′-Fluoro-3-(2-hydroxypropan-2-yl)-3′-methyl-2′-oxo-2′,3′-dihydrospiro[cyclobutane-1,1′-pyrrolo[2,3-c]quinolin]-8′-yl)-2-(2-(isopropylamino)ethoxy)pyridin-3-yl)methanesulfonamide]: the concentration for half-maximal inhibition (IC50) against ATM (setting [1]) and on DNA-PK (20 μM ATP) was 1 to 100 nM each time.

As for `Cc1cc(S(=O)(=O)Nc2cc(-c3ccc4ncc5c(c4c3)C3(CCC3)C(=O)N5C)cnc2N2CCN(C)CC2)sn1` [Example 246, 3-Methyl-N-(5-(3′-methyl-2′-oxo-2′,3′-dihydrospiro[cyclobutane-1,1′-pyrrolo[2,3-c]quinolin]-8′-yl)-2-(4-methylpiperazin-1-yl)pyridin-3-yl)isothiazole-5-sulfonamide], the IC50 was 1 to 100 nM on ATM (setting [2]) and under 0.5 nM at DNA-PK (ATP 20 μM).

For `CN(C)CCCOc1ncc(-c2ccc3ncc4c(c3c2)C2(CN(c3ccccc3)C2)C(=O)N4C)cc1NS(=O)(=O)c1ccccc1` [Example 114, N-(2-(3-(Dimethylamino)propoxy)-5-(3′-methyl-2′-oxo-1-phenyl-2′,3′-dihydrospiro[azetidine-3,1′-pyrrolo[2,3-c]quinolin]-8′-yl)pyridin-3-yl)benzenesulfonamide], the IC50 against ATM (setting [2]) and on DNA-PK (ATP 20 μM) was 1 to 100 nM throughout.

Regarding `COc1ccc(S(=O)(=O)Nc2cc(-c3ccc4ncc5c(c4c3)C3(CCC3)C(=O)N5C)cnc2OCCCN(C)C)cc1` [Example 144, N-(2-(3-(Dimethylamino)propoxy)-5-(3′-methyl-2′-oxo-2′,3′-dihydrospiro [cyclobutane-1,1′-pyrrolo[2,3-c]quinolin]-8′-yl)pyridin-3-yl)-4-methoxybenzenesulfonamide hydrochloride], the IC50 at ATM (setting [2]) and on DNA-PK (ATP 20 μM) was 1 to 100 nM in each case.

On to `CN1C(=O)C2(CCC2)c2c1cnc1cc(F)c(-c3cnc(N4CCC(N5CCCCC5)CC4)c(NS(C)(=O)=O)c3)cc21` [Example 358, N-(2-([1,4-Bipiperidin]-1′-yl)-5-(7′-fluoro-3′-methyl-2′-oxo-2′,3′-dihydrospiro[cyclobutane-1,1′-pyrrolo[2,3-c]quinolin]-8′-yl)pyridin-3-yl)methanesulfonamide hydrochloride], for which the IC50 was 0.5 to 1 nM against ATM (setting [1]) and 1 to 100 nM on DNA-PK (20 μM ATP).

In the case of `CC(C)NCCOc1ncc(-c2cc3c4c(cnc3cc2F)N(C)C(=O)C42CN(c3ccc(OC(F)(F)F)cc3)C2)cc1NS(C)(=O)=O` [Example 541, N-(5-(7′-Fluoro-3′-methyl-2′-oxo-1-(4-(trifluoromethoxy)phenyl)-2′,3′-dihydrospiro[azetidine-3,1′-pyrrolo[2,3-c]quinolin]-8′-yl)-2-(2-(isopropylamino)ethoxy)pyridin-3-yl)methanesulfonamide], the half-inhibitory concentration (IC50) against ATM (setting [1]) and against DNA-PK (20 μM ATP) was 1 to 100 nM in each case.

Turning to `CC(C)NCCOc1ncc(-c2cc3c(cc2F)ncc2c3[C@]3(C[C@@H](c4ccccc4)C3)C(=O)N2C)cc1NS(C)(=O)=O` [Example 415, trans-N-(5-(7′-Fluoro-3′-methyl-2′-oxo-3-phenyl-2′,3′-dihydrospiro[cyclobulane-1,1′-pyrrolo[2,3-c]quinolin]-8′-yl)-2-(2-(isopropylamino)ethoxy)pyridin-3-yl)methanesulfonamide hydrochloride], the IC50 at ATM (setting [1]) and at DNA-PK (20 μM ATP) was 1 to 100 nM in each case.

As for `CCS(=O)(=O)Nc1cc(-c2cc3c4c(cnc3cc2F)N(C)C(=O)C42CCC2)cnc1N1CC(NC)C1` [Example 334], the results for the IC50 against ATM (setting [2]) and at DNA-PK (ATP 20 μM) were 1 to 100 nM and 0.5 to 1 nM, respectively.

Take `CC(C)NCCOc1ncc(-c2cc3c4c(cnc3cc2F)N(C)C(=O)C42CN(c3ccc(C(C)C)cc3)C2)cc1NS(C)(=O)=O` [Example 530, N-(5-(7′-Fluoro-1-(4-isopropylphenyl)-3 methyl-2′-oxo-2′,3′-dihydrospiro [azetidine-3,1′-pyrrolo[2,3-c]quinolin]-8′-yl)-2-(2-(isopropylamino)ethoxy)pyridin-3-yl)methanesulfonamide]: the values for the IC50 against ATM (setting [1]) and on DNA-PK (20 μM ATP) were 1 to 100 nM and 0.5 to 1 nM, respectively.

Turning to `CN(C)CCCOc1ncc(-c2ccc3ncc4c(c3c2)C2(CC2)C(=O)N4C)cc1NS(=O)(=O)c1ccccc1F` [Example 107, N-(2-(3-(Dimethylamino)propoxy)-5-(3′-methyl-2′-oxo-2′,3′-dihydrospiro[cyclopropane-1,1′-pyrrolo[2,3-c]quinolin]-8′-yl)pyridin-3-yl)-2-fluorobenzenesulfonamide], the IC50 against ATM (setting [2]) is 0.5 to 1 nM; against DNA-PK (ATP 20 μM), under 0.5 nM.

In the case of `CN(C)CCCOc1ncc(-c2ccc3ncc4c(c3c2)C2(CC2)C(=O)N4Cc2cn[nH]c2)cc1NS(=O)(=O)c1ccccc1` [Example 30, N-(5-(3′-((1H-Pyrazol-4-yl)methyl)-2′-oxo-2′,3′-dihydrospiro[cyclopropane-1,1′-pyrrolo[2,3-c]quinolin]-8′-yl)-2-(3-(dimethylamino)propoxy)pyridin-3-yl)benzenesulfonamide], the IC50 at ATM (setting [2]) and on DNA-PK (ATP 20 μM) was 1 to 100 nM throughout.

In the case of `CC(C#N)c1cccc(S(=O)(=O)Nc2cc(-c3ccc4ncc5c(c4c3)C3(CC3)C(=O)N5C)cnc2OCCCN(C)C)c1` (stereo not drawn) [Example 46, 3-(1-Cyanoethyl))-N-((2-(3-(Dimethylamino)propoxy)-5-(3′-methyl-2′-oxo-2′,3′-dihydrospiro [cyclopropane-1,1′-pyrrolo[2,3-c]quinolin]-8′-yl)pyridin-3-yl)benzenesulfonamide], the IC50 against ATM (setting [2]) is 1 to 100 nM; on DNA-PK (ATP 20 μM) it was under 0.5 nM.

Consider `CC(C)NCCOc1ncc(-c2cc3c4c(cnc3cc2F)N(C)C(=O)C42CCC2)cc1NS(=O)(=O)N1CCOCC1` [Example 373, N-(5-(7′-Fluoro-3′-methyl-2′-oxo-2′,3′-dihydrospiro [cyclobutane-1,1′-pyrrolo [2,3-c]quinolin]-8′-yl)-2-(2-(isopropylamino)ethoxy)pyridin-3-yl)morpholine-4-sulfonamide hydrochloride], for which the concentration for half-maximal inhibition (IC50) at ATM (setting [1]) and on DNA-PK (20 μM ATP) was 1 to 100 nM in each case.

`CN(C)CCCOc1ncc(-c2ccc3ncc4c(c3c2)C2(CC2)C(=O)N4CC2COC2)cc1NS(=O)(=O)c1ccccc1` [Example 37, N-(2-(3-(Dimethylamino)propoxy)-5-(3′-(oxetan-3-ylmethyl)-2′-oxo-2′-3′-dihydrospiro [cyclopropane-1,1′-pyrrolo[2,3-c]quinolin]-8′-yl)pyridin-3-yl)benzenesulfonamide]: the IC50 against ATM (setting [2]) and on DNA-PK (ATP 20 μM) was 1 to 100 nM throughout.

Consider `CC1CN(S(=O)(=O)Nc2cc(-c3ccc4ncc5c(c4c3)C3(CCC3)C(=O)N5C)cnc2OCCCN(C)C)CC(C)O1` (stereo not drawn) [Example 184, N-(2-(3-(Dimethylamino)propoxy)-5-(3′-methyl-2′-oxo-2′,3′-dihydrospiro[cyclobutane-1,1′-pyrrolo[2,3-c]quinolin]-8′-yl)pyridin-3-yl)-2,6-dimethylmorpholine-4-sulfonamide], for which the IC50 against ATM (setting [2]) and on DNA-PK (ATP 20 μM) was 1 to 100 nM each time.

For the compound `CN1C(=O)C2(CCC2)c2c1cnc1ccc(-c3cnc(N4CCC(N5CCCCC5)CC4)c(NS(C)(=O)=O)c3)cc21` [Example 228, N-(2-([1,4′-Bipiperidin]-1′-yl)-5-(3′-methyl-2′-oxo-2′,3′-dihydrospiro[cyclobutane-1,1′-pyrrolo[2,3-c]quinolin]-8′-yl)pyridin-3-yl)methanesulfonamide], the IC50 at ATM (setting [2]) was 0.5 to 1 nM; against DNA-PK (ATP 20 μM), under 0.5 nM.

On to `CC(C)NCCOc1ncc(-c2cc3c(cc2F)ncc2c3[C@]3(C[C@H](c4ccccc4F)C3)C(=O)N2C)cc1NS(C)(=O)=O` [Example 426, cis-N-(5-(7′-Fluoro-3-(2-fluorophenyl)-3′-methyl-2′-oxo-2′,3′-dihydrospiro[cyclobutane-1,1′-pyrrolo[2,3-c]quinolin]-8′-yl)-2-(2-(isopropylamino)ethoxy)pyridin-3-yl)methanesulfonamide], for which the IC50 against ATM (setting [1]) and against DNA-PK (20 μM ATP) was 1 to 100 nM throughout.

Regarding `CN(C)CCCOc1ncc(-c2ccc3ncc4c(c3c2)C2(CCC2)C(=O)N4C)cc1NS(=O)(=O)CCN` [Example 223, 2-Amino-N-(2-(3-(dimethylamino)propoxy)-5-(3′-methyl-2′-oxo-2′,3′-dihydrospiro[cyclobutane-1,1′-pyrrolo[2,3-c]quinolin]-8′-yl)pyridin-3-yl)ethane-1-sulfonamide], the results for the IC50 on ATM (setting [2]) and at DNA-PK (ATP 20 μM) were 1 to 100 nM and under 0.5 nM, respectively.

Values taken from patent US12187742B2 (XRAD Therapeutics, Inc., priority 2018, dated 2025).
